According to PMC7835894 (Molecules, 2021):

System: Caco-2
Experiment: MTT antiproliferation assay
Type: cell-based, human
Details: Homo sapiens; Caco-2, MTT, 24 h, single agent, mean ± SEM
Procedure: The antiproliferation and cytotoxicity were assessed using 3-(4,5-dimethylthiazol-2-yl)-2,5-diphenyltetrazolium bromide (MTT, Serva) colorimetric assay. To investigate the antiproliferation, all cell lines were seeded at a density of 20,000 cells per well in 96-well plates and allowed to adhere overnight. […] These concentrations were prepared by diluting the stock solutions with serum-free culture media. The negative control cells were those treated with 0.1% DMSO solvent alone. The treated cells were handled in reduced light and maintained under standard culture growth conditions for 24 h. After the incubation period, MTT powder was prepared as a stock solution (5 mg/mL) and 20 μL of the MTT working reagent (final concentration 0.5 mg/mL) was added to each well. This was followed by incubation with MTT reagent for 4 h in a humidified atmosphere (37 °C, 5% CO2) with subsequent addition of 150 μL of DMSO solubilizing solvent and incubation for 20 min. The absorbance of solubilized violet formazan crystals was measured at 540 nm with Biotek 800 TS microplate reader. IC50 was calculated as the concentration of retinoid that produced 50% cell growth inhibition. For cytotoxicity assessment, WI-38 normal human fibroblast cells were used for the calculation of SI which is the ratio of IC50 retinoid (WI-38)/IC50 retinoid (cancer cell line).

IC50: 18.4 ± 0.6 µM
Compound: O=c1[nH]cc(F)c(=O)[nH]1 [5-FU, 5-fluorouracil, reference compound]
